{
  "source": "ChEMBL document CHEMBL5120901",
  "about": "“Batatasin III, a Constituent of Dendrobium scabrilingue, Improves Murine Pain-like Behaviors with a Favorable CNS Safety Profile” (J Nat Prod, 2022)",
  "key": {"RAW264.7 [1]": {"test_system": "RAW264.7", "assay": "Anti-inflammartory activity in mouse RAW264.7 cells assessed as inhibition of LPS-induced NO production pretreated with compound for 1 hr followed by incubation with LPS for 12 hrs by Griess reagent based analysis", "type": "functional, cell-based", "conditions": "dose 12.5-50 µM, time 13.0 hrs, DDE = dose-dependent effect"}, "[2]": {"assay": "CNS toxicity in naive ICR mouse assessed as motor coordination at 50 mg/kg, ip measured after 240 mins by rotarod test", "type": "organism-based", "conditions": "in vivo, 4 h"}, "Mus musculus [3]": {"test_system": "Mus musculus", "assay": "Analgesic activity against formalin-induced inflammatory pain-like behaviour ICR mouse model assessed as inhibition of hind paw licking behaviour at 50 mg/kg, ip administered 60 mins prior to formalin challenge and measured after 10 to 40 mins by formalin test", "type": "functional", "conditions": "time 70-100 min"}, "Mus musculus [4]": {"test_system": "Mus musculus", "assay": "(§1) Anti-inflammatory activity against LPS-induced inflammatory pain-like behaviour ICR mouse model assessed as improvement in locomotor activity by measuring increase in distance travelled in LABORAS arena at 50 mg/kg, ip treated with LPS for 2 hrs followed by drug administration for 1 hr and measured for 5 mins by LABORAS analysis", "type": "functional, organism-based", "conditions": "time 65.0 min"}, "BV-2 [5]": {"test_system": "BV-2", "assay": "Anti-inflammartory activity against LPS-activated […] cells assessed as reduction in IL-6 levels pretreated with compound for 1 hr followed by co-incubation with LPS for 24 hrs by ELISA", "type": "functional, cell-based", "conditions": "Mus musculus, dose 12.5-50 µM, time 25.0 hrs, DDE = dose-dependent effect"}, "[6]": {"assay": "CNS toxicity in naive ICR mouse assessed as spontaneous locomotor activity by measuring rearing behaviour at 50 mg/kg, ip and measured for 30 mins by LABORAS automated behavioral analysis", "type": "organism-based", "conditions": "in vivo, 0.5 h"}, "Mus musculus [7]": {"test_system": "Mus musculus", "assay": "as §1, with “decrease” for “increase”, “immobility behaviour” for “distance travelled in LABORAS arena”", "type": "functional, organism-based", "conditions": "time 65.0 min"}, "[8]": {"assay": "CNS toxicity in naive ICR mouse assessed as spontaneous locomotor activity at 50 mg/kg, ip and measured for 2 hrs by LABORAS automated behavioral analysis", "type": "organism-based", "conditions": "in vivo"}, "RAW264.7 [9]": {"test_system": "RAW264.7", "assay": "Anti-inflammartory activity against LPS-activated mouse RAW264.7 cells assessed as reduction in IL-6 levels pretreated with compound for 1 hr followed by incubation with LPS for 12 hrs by ELISA", "type": "functional, cell-based", "conditions": "dose 12.5-50 µM, time 13.0 hrs, DDE = dose-dependent effect"}, "[10]": {"assay": "CNS toxicity in naive ICR mouse assessed as spontaneous locomotor activity by measuring immobility behaviour at 50 mg/kg, ip and measured for 2 hrs by LABORAS automated behavioral analysis", "type": "organism-based", "conditions": "in vivo"}, "[11]": {"assay": "Toxicity in naive ICR mouse assessed as effect on food intake at 50 mg/kg, ip measured after 24 hrs", "type": "organism-based", "conditions": "in vivo"}, "Mus musculus [12]": {"test_system": "Mus musculus", "assay": "as §1, with “increased mobile behaviours” for “increase in distance travelled in LABORAS arena”", "type": "functional, organism-based", "conditions": "time 65.0 min"}, "Mus musculus [13]": {"test_system": "Mus musculus", "assay": "Anti-inflammatory activity against LPS-induced inflammatory pain-like behaviour ICR mouse model assessed as reduction in TNF-alpha levels in plasma at 50 mg/kg, ip treated with LPS for 2 hrs followed by drug administration for 1 hr by ELISA", "type": "functional, organism-based"}, "[14]": {"assay": "CNS toxicity in naive ICR mouse assessed as spontaneous locomotor activity at 50 mg/kg, ip and measured for 30 mins by LABORAS automated behavioral analysis", "type": "organism-based", "conditions": "in vivo, 0.5 h"}, "RAW264.7 [15]": {"test_system": "RAW264.7", "assay": "Anti-inflammartory activity against LPS-activated mouse RAW264.7 cells assessed as reduction in TNF-alpha levels pretreated with compound for 1 hr followed by incubation with LPS for 12 hrs by ELISA", "type": "functional, cell-based", "conditions": "dose 12.5-50 µM, time 13.0 hrs, DDE = dose-dependent effect"}, "BV-2 [16]": {"test_system": "BV-2", "assay": "Anti-inflammartory activity against LPS-activated […] cells assessed as reduction in TNF-alpha levels pretreated with compound for 1 hr followed by co-incubation with LPS for 24 hrs by ELISA", "type": "functional, cell-based", "conditions": "Mus musculus, dose 12.5-50 µM, time 25.0 hrs, DDE = dose-dependent effect"}, "Mus musculus [17]": {"test_system": "Mus musculus", "assay": "Analgesic activity against formalin-induced inflammatory pain-like behaviour ICR mouse model assessed as inhibition of hind paw licking behaviour at 12.5 to 50 mg/kg, ip administered 60 mins prior to formalin challenge and measured after 10 to 40 mins by formalin test", "type": "functional, organism-based", "conditions": "dose 12.5-50 mg/kg, time 70-100 min, DDE = dose-dependent effect"}, "Mus musculus [18]": {"test_system": "Mus musculus", "assay": "Anti-inflammatory activity against LPS-induced inflammatory pain-like behaviour ICR mouse model assessed as reduction in IL-6 levels in plasma at 50 mg/kg, ip treated with LPS for 2 hrs followed by drug administration for 1 hr by ELISA", "type": "functional, organism-based"}, "[19]": {"assay": "CNS toxicity in naive ICR mouse assessed as spontaneous locomotor activity by measuring rearing behaviour at 50 mg/kg, ip and measured for 2 hrs by LABORAS automated behavioral analysis", "type": "organism-based", "conditions": "in vivo"}, "BV-2 [20]": {"test_system": "BV-2", "assay": "Anti-inflammatory activity in […] cells assessed as inhibition of LPS-induced NO production pretreated with compound for 1 hr followed by coincubation with LPS for 24 hrs by Griess reagent based analysis", "type": "functional, cell-based", "conditions": "Mus musculus, dose 12.5-50 µM, time 25.0 hrs, DDE = dose-dependent effect"}, "Mus musculus [21]": {"test_system": "Mus musculus", "assay": "as §1, with “animal's movement speed” for “distance travelled”", "type": "functional, organism-based", "conditions": "time 65.0 min"}, "[22]": {"assay": "CNS toxicity in naive ICR mouse assessed as spontaneous locomotor activity by measuring anaimal's movement speed in arena at 50 mg/kg, ip and measured for 2 hrs by LABORAS automated behavioral analysis", "type": "organism-based", "conditions": "in vivo"}, "BV-2 [23]": {"test_system": "BV-2", "assay": "Cytotoxicity against […] cells assessed as reduction in cell viability at 100 uM incubated for 24 hrs by MTT assay", "type": "toxicity, cell-based", "conditions": "mouse, bv-2, 24 h"}, "[24]": {"assay": "Toxicity in naive ICR mouse assessed as effect on body weight at 50 mg/kg, ip measured after 24 hrs", "type": "organism-based", "conditions": "in vivo"}, "[25]": {"assay": "Toxicity in naive ICR mouse assessed as effect on water intake at 50 mg/kg, ip measured after 24 hrs", "type": "organism-based", "conditions": "in vivo"}, "[26]": {"assay": "CNS toxicity in naive ICR mouse assessed as spontaneous locomotor activity by measuring climbing behaviour at 50 mg/kg, ip and measured for 2 hrs by LABORAS automated behavioral analysis", "type": "organism-based", "conditions": "in vivo"}, "RAW264.7 [27]": {"test_system": "RAW264.7", "assay": "Cytotoxicity against mouse RAW264.7 cells assessed as reduction in cell viability at 100 uM incubated for 24 hrs by MTT assay", "type": "toxicity, cell-based", "conditions": "raw264.7, 24 h"}, "[28]": {"assay": "CNS toxicity in naive ICR mouse assessed as spontaneous locomotor activity by measuring animal's movement speed in arena at 50 mg/kg, ip and measured for 30 mins by LABORAS automated behavioral analysis", "type": "organism-based", "conditions": "in vivo, 0.5 h"}, "[29]": {"assay": "CNS toxicity in naive ICR mouse assessed as spontaneous locomotor activity by measuring distance travelled in arena at 50 mg/kg, ip and measured for 30 mins by LABORAS automated behavioral analysis", "type": "organism-based", "conditions": "in vivo, 0.5 h"}, "[30]": {"assay": "CNS toxicity in naive ICR mouse assessed as spontaneous locomotor activity by measuring climbing behaviour at 50 mg/kg, ip and measured for 30 mins by LABORAS automated behavioral analysis", "type": "organism-based", "conditions": "in vivo, 0.5 h"}, "[31]": {"assay": "CNS toxicity in naive ICR mouse assessed as spontaneous locomotor activity by measuring immobility behaviour at 50 mg/kg, ip and measured for 30 mins by LABORAS automated behavioral analysis", "type": "organism-based", "conditions": "in vivo, 0.5 h"}, "[32]": {"assay": "CNS toxicity in naive ICR mouse assessed as spontaneous locomotor activity by measuring distance travelled in arena at 50 mg/kg, ip and measured for 2 hrs by LABORAS automated behavioral analysis", "type": "organism-based", "conditions": "in vivo"}},
  "note": "The source made the active and inactive calls. The calls are words filed in the database; no cut-off is given here.",
  "data": [
    {"smiles": "COc1cc(O)cc(CCc2cccc(O)c2)c1", "note": "[BATATASIN III]", "values": [
      {"measurement": "Activity", "setting": "RAW264.7 [1]", "result": "Dde"},
      {"measurement": "Activity", "setting": "[2]", "result": "Non-Toxic"},
      {"measurement": "inhibition in vivo at 50 mg/kg", "setting": "Mus musculus [3]", "result": 69.9, "unit": "%"},
      {"measurement": "Activity", "setting": "Mus musculus [4]", "result": "Active"},
      {"measurement": "Activity", "setting": "BV-2 [5]", "result": "Dde"},
      {"measurement": "Activity", "setting": "[6]", "result": "Non-Toxic"},
      {"measurement": "Activity", "setting": "Mus musculus [7]", "result": "Active"},
      {"measurement": "Activity", "setting": "[8]", "result": "Non-Toxic"},
      {"measurement": "Activity", "setting": "RAW264.7 [9]", "result": "Dde"},
      {"measurement": "Activity", "setting": "[10]", "result": "Non-Toxic"},
      {"measurement": "Activity", "setting": "[11]", "result": "Non-Toxic"},
      {"measurement": "Activity", "setting": "Mus musculus [12]", "result": "Active"},
      {"measurement": "Activity", "setting": "Mus musculus [13]", "result": "Active"},
      {"measurement": "Activity", "setting": "[14]", "result": "Non-Toxic"},
      {"measurement": "Activity", "setting": "RAW264.7 [15]", "result": "Dde"},
      {"measurement": "Activity", "setting": "BV-2 [16]", "result": "Dde"},
      {"measurement": "Activity", "setting": "Mus musculus [17]", "result": "Dde"},
      {"measurement": "Activity", "setting": "Mus musculus [18]", "result": "Active"},
      {"measurement": "Activity", "setting": "[19]", "result": "Non-Toxic"},
      {"measurement": "Activity", "setting": "BV-2 [20]", "result": "Dde"},
      {"measurement": "Activity", "setting": "Mus musculus [21]", "result": "Active"},
      {"measurement": "Activity", "setting": "[22]", "result": "Non-Toxic"},
      {"measurement": "Activity", "setting": "BV-2 [23]", "result": "Toxic"},
      {"measurement": "Activity", "setting": "[24]", "result": "Non-Toxic"},
      {"measurement": "Activity", "setting": "[25]", "result": "Non-Toxic"},
      {"measurement": "Activity", "setting": "[26]", "result": "Non-Toxic"},
      {"measurement": "Activity", "setting": "RAW264.7 [27]", "result": "Toxic"},
      {"measurement": "Activity", "setting": "[28]", "result": "Non-Toxic"},
      {"measurement": "Activity", "setting": "[29]", "result": "Non-Toxic"},
      {"measurement": "Activity", "setting": "[30]", "result": "Non-Toxic"},
      {"measurement": "Activity", "setting": "[31]", "result": "Non-Toxic"},
      {"measurement": "Activity", "setting": "[32]", "result": "Non-Toxic"}
    ]}
  ]
}
